Laboratory results: the supplement of paper PMC10307832

How the values were obtained:
Assay in all cases: relative viability (nuclei count vs DMSO), 5 days (fraction); higher = more cells survive
[1] = compound: C1=CC=C(C(=C1)C2=CC=C(C=C2)C3=CSC4=C3C(=C(C(=O)N4)C#N)O)O + CC(C)C[C@H](NC(=O)[C@H](Cc1ccccc1)NC(=O)c1cnccn1)B(O)O [Bortezomib] (partner 0.002 µM)
Procedure, shortened: (§1)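 Relative viability equals treated-well nuclei counts divided by vehicle-well nuclei counts. Counts came from 4× images of lung cancer cell lines grown in 1536-well plates for 5 days after pin-tool dosing on the day after seeding. Dosing used one drug alone or a fixed anchor-drug dose plus five library-drug doses (not always all listed) in √10 steps, and values are medians of duplicate plates.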

[2] = compound: C1=CC=C(C(=C1)C2=CC=C(C=C2)C3=CSC4=C3C(=C(C(=O)N4)C#N)O)O + C[C@@H](Oc1cc(-c2cnn(C3CCNCC3)c2)cnc1N)c1c(Cl)ccc(F)c1Cl [Crizotinib] (partner 1 µM)
Procedure, shortened: as §1

[3] = compound: CC1=CN2C(=O)C=C(N=C2C(=C1)C(C)NC3=CC=CC=C3)N4CCOCC4 [TGX 221] + Nc1ncn([C@H]2C[C@H](O)[C@@H](CO)O2)c(=O)n1 [Decitabine] (partner 2 µM)
Procedure, shortened: as §1

[4] = compound: O=C(CCCCCCNC(=O)c1cnc(N(c2ccccc2)c2ccccc2)nc1)NO [Ricolinostat] + CCNC(=O)c1noc(-c2cc(C(C)C)c(O)cc2O)c1-c1ccc(CN2CCOCC2)cc1 [Luminespib] (partner 0.01 µM)
Procedure, shortened: as §1

Cell Line	relative viability ([1]; first compound 0.08 µM)	relative viability ([1]; first compound 0.253 µM)	relative viability ([1]; first compound 0.8 µM)	relative viability ([1]; first compound 2.53 µM)	relative viability ([1]; first compound 8 µM)	relative viability ([2]; first compound 0.08 µM)	relative viability ([2]; first compound 0.253 µM)	relative viability ([2]; first compound 0.8 µM)	relative viability ([2]; first compound 2.53 µM)	relative viability ([2]; first compound 8 µM)	relative viability ([3]; first compound 0.08 µM)	relative viability ([3]; first compound 0.253 µM)	relative viability ([3]; first compound 0.8 µM)	relative viability ([3]; first compound 2.53 µM)	relative viability ([3]; first compound 8 µM)	relative viability ([4]; first compound 0.08 µM)	relative viability ([4]; first compound 0.253 µM)	relative viability ([4]; first compound 0.8 µM)	relative viability ([4]; first compound 2.53 µM)
NCI-H2023	1.16	1.03	0.637	0.887	0.908	0.546	0.759	0.607	0.701	0.538	0.224	0.236	0.243	0.217	0.23	0.761	0.434	0.752	0.665
NCI-H2085	0.919	1.26	1.01	0.952	0.992	0.704	0.983	0.859	0.952	0.867	0.59	0.524	0.548	0.414	0.451		0.447	0.37	0.357
NCI-H2087	0.609	1	0.796	0.833	0.899	0.845	1.04	0.914	1.02	0.825	0.231	0.261	0.235	0.252	0.304		0.205	0.15	0.159
NCI-H2126	1.06	1.13	1.18	1.21	1.22	0.921	1.11	1	1.09	0.912	0.568	0.567	0.633	0.55	0.554		0.919	1.01	0.862
NCI-H2347	0.913	1.24	1.23	1.02	0.869	0.717	0.807	0.558	0.658	0.687	0.564	0.504	0.582	0.558	0.597	0.424	0.487	0.573	0.364
NCI-H2405	1.02	0.991	0.977	0.954	0.988	0.787	0.844	0.855	0.812	0.787	0.72	0.729	0.75	0.68	0.615	0.615	0.929	0.69	0.874
NCI-H3122	1.02	1.06	1.06	0.993	1.11	0.317	0.34	0.248	0.271	0.302	0.405	0.33	0.422	0.378	0.548	0.0722	0.0881	0.105	0.0921
PC-3 [JPC-3]	0.762	0.817	0.758	0.95	0.899	0.986	1.12	0.915	1	0.891	0.749	0.802	0.826	0.815	0.898		0.702	0.764	0.66
PC-14	0.801	0.81	0.812	1.07	0.88	0.851	0.859	0.869	1.02	0.907	0.206	0.203	0.228	0.281	0.207		0.172	0.177	0.169
RERF-LC-KJ	0.995	1.1	1.22	1.1	1.05	0.875	0.885	0.858	0.86	0.763	0.632	0.75	0.762	0.692	0.678	1.31	1.07	1.16	0.809
SK-LU-1		0.83	1.12	1.36	1.16	0.895	0.995	0.837	0.85	0.661	0.612	0.626	0.522	0.588	0.626	0.199	0.204	0.212	0.223
SW 1573	0.823	1.02	1.12	1.04	0.88	0.683	0.796	0.897	0.797	0.61	0.457	0.387	0.535	0.517	0.524	0.389	0.214	0.144	0.154
UMC-11	0.519	0.742	0.56	0.8	0.487	0.547	0.506	0.574	0.487	0.622	0.522	0.545	0.725	0.572	0.62	0.985	1.02	0.964	0.684
